Laboratory results from publication PMC8484451, “Characterization of fluorescent probe substrates to develop an efficient high-throughput assay for neonatal hepatic CYP3A7 inhibition screening” (Scientific Reports, 2021).

Key:
[1] = target: T1, CYP3A7 (Homo sapiens, UniProt P24462); assay: Michaelis-Menten kinetics (fluorescence); type: biochemical; details: read-out: DBOMF
T1 construct: recombinant human CYP3A7 Supersomes (Sf9 insect cell microsomes); with human NADPH-cytochrome P450 reductase and human cytochrome b5 (co-expressed)

[2] = target: T1, CYP3A7; assay: fluorescent DBF O-debenzylation inhibition assay with recombinant CYP3A7; type: biochemical
[3] = target: T1, CYP3A7; assay: fluorescent DBF inhibition assay at […]; type: biochemical; details: read-out: % inhibition at 20 μM
[4] = substrate: O=C(OCc1ccccc1)c1ccccc1-c1c2ccc(=O)cc-2oc2cc(OCc3ccccc3)ccc12; assay: Michaelis-Menten kinetics (fluorescence); metabolites by LC-MS/MS; type: biochemical, Homo sapiens; details: NADPH likely binds in the CYP3A7 active site mirroring native substrates
[5] = substrate: c1ccc(COc2ccc3cccnc3c2)cc1; assay: Michaelis-Menten kinetics (fluorescence); type: biochemical, Homo sapiens; details: NADPH

## O=C(OCOCc1ccccc1)c1ccccc1-c1c2ccc(=O)cc-2oc2cc(OCOCc3ccccc3)ccc12 [DBOMF, dibenzyloxymethylfluorescein]
[1]
  Km: 1.62 µM

## C[C@]12CC[C@H](OS(=O)(=O)O)CC1=CC[C@@H]1[C@@H]2CC[C@]2(C)C(=O)CC[C@@H]12 [DHEA-S]
[2]
  IC50: 5.31 µM

## CC(C)CN(C[C@@H](O)[C@H](Cc1ccccc1)NC(=O)O[C@H]1CO[C@H]2OCC[C@H]21)S(=O)(=O)c1ccc(N)cc1 [Darunavir]
[3]
  inhibition at 20 µM: > 75%

## Cc1c(O)cccc1C(=O)N[C@@H](CSc1ccccc1)[C@H](O)CN1C[C@H]2CCCC[C@H]2C[C@H]1C(=O)NC(C)(C)C [Nelfinavir]
[3]
  inhibition at 20 µM: > 75%

B1: CYP3A7 (Homo sapiens) (protein)
chain: MDLIPNLAVETWLLLAVSLILLYLYGTRTHGLFKKLGIPGPTPLPFLGNALSFRKGYWTFDMECYKKYRKVWGIYDCQQPMLAITDPDMIKTVLVKECYSVFTNRRPFGPVGFMKNAISIAEDEEWKRIRSLLSPTFTSGKLKEMVPIIAQYGDVLVRNLRREAETGKPVTLKHVFGAYSMDVITSTSFGVSIDSLNNPQDPFVENTKKLLRFNPLDPFVLSIKVFPFLTPILEALNITVFPRKVISFLTKSVKQIKEGRLKETQKHRVDFLQLMIDSQNSKDSETHKALSDLELMAQSIIFIFAGYETTSSVLSFIIYELATHPDVQQKVQKEIDTVLPNKAPPTYDTVLQLEYLDMVVNETLRLFPVAMRLERVCKKDVEINGMFIPKGVVVMIPSYVLHHDPKYWTEPEKFLPERFSKKNKDNIDPYIYTPFGSGPRNCIGMRFALVNMKLALVRVLQNFSFKPCKETQIPLKLRFGGLLLTEKPIVLKAESRDETVSGA
notes: recombinant human CYP3A7 Supersomes (Sf9 insect cell microsomes); with human NADPH-cytochrome P450 reductase and human cytochrome b5 (co-expressed)
[4]
  Km: 0.525 µM
  kcat: 0.00247 s⁻¹
[5]
  Km: 0.913 µM
  kcat: 0.0217 s⁻¹
